Source: patent US9682961B2, “Quinazoline derivative” (CARNA BIOSCIENCES, INC., priority 2013, dated 2017)

System: AXIN2 protein expression
Assay: Expression level of Wnt/β-catenin target protein AXIN2 by western blotting in HCT116 cells
Format: cell-based
Details: Homo sapiens, 24 hours, read-out: Inhibition rate (%) AXIN2 protein
Procedure: Expression levels of target proteins of the Wnt/β-catenin signaling pathway was analyzed by western blotting method, and effects of the compound of the present invention on Wnt/β-catenin signaling activity were studied by using a change of these levels as an indicator. HCT116 cells cultured in the same manner as in Test Example 2 were diluted with the medium 1 so as to have a cell concentration of 5×10^5 cells/mL, and 5 mL of the diluted cells were seeded into T25 flasks, followed by culturing overnight in the 5% CO2 incubator. Next day, solutions of the compound to be tested obtained by diluting 10 and 3 mM DMSO stock solutions of the compound to be tested 100-fold with the medium 1 were added to each flask so that the amount of the solution in the flask was one tenth of the amount of the final solution (final concentrations of the compound to be tested: 10 and 3 μM). […] Supernatant was recovered by centrifugal operation (15,000 rpm, 10 min.) and amounts of proteins were determined. […] Thereafter, using a CCD camera (GE Healthcare Co., ImageQuant LAS 500), the respective bands were detected by chemiluminescence. The detected bands were quantified by densitometry (GE Healthcare Co., ImageQuant TL v8.1.0.0). Inhibition rates were calculated from the intensities of the bands in the respective groups, with the luminescence of the band of the DMSO added group being 100%. […]

## O[C@H]1CC[C@@H](Oc2cccc3cnc(Nc4ccc5nc[nH]c5c4)nc23)CC1 [Example 1, cis-4-({2-[(1H-benzo[d]imidazol-6-yl)amino]quinazolyn-8-yl}oxy)cyclohexanol]
HCT-116, 3 μM
  inhibition at 3 µM: 46.1%
HCT-116, 10 μM
  inhibition at 10 µM: 66.9%
